The structures appear in SMILES notation.

For this assay, the target named is T1, α-glucosidase (Saccharomyces cerevisiae, UniProt P53341).
T1 construct: purchased Sigma Inc
T1 sequence (P53341 whole entry): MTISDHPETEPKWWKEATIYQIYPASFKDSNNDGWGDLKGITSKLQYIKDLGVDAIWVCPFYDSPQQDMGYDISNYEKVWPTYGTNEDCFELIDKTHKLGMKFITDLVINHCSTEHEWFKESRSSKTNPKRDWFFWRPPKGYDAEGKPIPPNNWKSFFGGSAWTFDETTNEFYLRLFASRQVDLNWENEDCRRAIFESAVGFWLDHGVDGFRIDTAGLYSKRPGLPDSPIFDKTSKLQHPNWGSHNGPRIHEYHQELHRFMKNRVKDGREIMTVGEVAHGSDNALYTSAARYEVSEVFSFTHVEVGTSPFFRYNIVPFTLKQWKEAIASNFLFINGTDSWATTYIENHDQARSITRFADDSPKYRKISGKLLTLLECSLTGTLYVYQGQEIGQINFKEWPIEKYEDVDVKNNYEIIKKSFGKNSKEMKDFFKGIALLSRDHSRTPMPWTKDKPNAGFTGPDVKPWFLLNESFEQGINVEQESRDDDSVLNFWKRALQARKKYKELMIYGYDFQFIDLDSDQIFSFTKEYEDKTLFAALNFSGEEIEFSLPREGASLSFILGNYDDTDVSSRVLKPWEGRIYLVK
Nature of the assay: α-glucosidase inhibition assay. Format: biochemical. The note with it: 50 mM phosphate buffer pH 6.8; 0.057 units enzyme; standard acarbose. On the procedure:
The α-glucosidase activity was executed according to Fazal et al.. The following chemicals were used (concentrations): • 70 μL of 50 mM phosphate buffer (pH 6.8); • 10 μL (0.5 mM in methanol) test compounds; and • 10 μL (0.057 units, Sigma Inc.) of enzyme solution in buffer. For details on the experiment, kindly see Reference.
As usually defined, the IC50 is the point on the concentration scale where inhibition reaches its midpoint. Low values mean greater potency, high ones weaker potency. `COc1ccc(C(CSc2nnc3c(n2)[nH]c2ccccc23)=NNC(=S)Nc2cccc(Cl)c2Cl)cc1` [Compound 1, 2-(2-((5H-[1,2,4]triazino [5,6-b]indol-3-yl)thio)-1-(4-methoxyphenyl)ethylidene)-N-(2,3-dichlorophenyl)hydrazine-1-carbothioamide]: the IC50 was determined as 1.3 ± 0.05 µM.

`COc1ccc(C(CSc2nnc3c(n2)[nH]c2ccccc23)=NNC(=S)Nc2ccc([N+](=O)[O-])cc2)cc1` [Compound 2, 2-(2-((5H-[1,2,4]triazino [5,6-b]indol-3-yl)thio)-1-(4-methoxyphenyl)ethylidene)-N-(4-nitrophenyl)hydrazine-1-carbothioamide] returned a concentration for half-maximal inhibition (IC50) of 2.6 ± 0.05 µM.

`S=C(NN=C(CSc1nnc2c(n1)[nH]c1ccccc12)c1ccc(-c2ccccc2)cc1)Nc1cccc(Cl)c1Cl` [Compound 3, 2-(2-((5H-[1,2,4]triazino [5,6-b]indol-3-yl)thio)-1-([1,1′-biphenyl]-4-yl)ethylidene)-N-(2,3-dichlorophenyl)hydrazine-1-carbothioamide]: the IC50 came out at 7.5 ± 0.2 µM.

Consider `Cc1ccc(NC(=S)NN=C(CSc2nnc3c(n2)[nH]c2ccccc23)c2ccc(-c3ccccc3)cc2)cc1` [Compound 4, 2-(2-((5H-[1,2,4]triazino[5,6-b]indol-3-yl)thio)-1-([1,1′-biphenyl]-4-yl)ethylidene)-N-(p-tolyl)hydrazine-1-carbothioamide], for which the midpoint of inhibition, the IC50, lay at 12.8 ± 0.3 µM.

Compound `COc1ccc(C(CSc2nnc3c(n2)[nH]c2ccccc23)=NNC(=S)Nc2ccc(C)cc2)cc1` [Compound 5, 2-(2-((5H-[1,2,4]triazino[5,6-b]indol-3-yl)thio)-1-(4-methoxyphenyl)ethylidene)-N-(p-tolyl)hydrazine-1-carbothioamide] came in with an IC50 of 5.2 ± 0.3 µM.

Regarding `S=C(NN=C(CSc1nnc2c(n1)[nH]c1ccccc12)c1ccc(-c2ccccc2)cc1)Nc1ccccc1Br` [Compound 6, 2-(2-((5H-[1,2,4]triazino[5,6-b]indol-3-yl)thio)-1-([1,1′-biphenyl]-4-yl)ethylidene)-N-(2-bromophenyl)hydrazine-1-carbothioamide], the IC50 was determined as 25.3 ± 0.5 µM.

Regarding `Cc1ccc(C(CSc2nnc3c(n2)[nH]c2ccccc23)=NNC(=S)Nc2ccccc2Br)cc1` [Compound 7, 2-(2-((5H-[1,2,4]triazino[5,6-b]indol-3-yl)thio)-1-(p-tolyl)ethylidene)-N-(2-bromophenyl)hydrazine-1-carbothioamide], the IC50 stood at 33.3 ± 0.6 µM.

With `Cc1ccc(NC(=S)NN=C(CSc2nnc3c(n2)[nH]c2ccccc23)c2ccc(C)cc2)cc1` [Compound 8, 2-(2-((5H-[1,2,4]triazino[5,6-b]indol-3-yl)thio)-1-(p-tolyl)ethylidene)-N-(p-tolyl)hydrazine-1-carbothioamide], the IC50 stood at 17.5 ± 0.3 µM.

With `O=[N+]([O-])c1ccc(C(CSc2nnc3c(n2)[nH]c2ccccc23)=NNC(=S)Nc2ccccc2)cc1` [Compound 9, 2-(2-((5H-[1,2,4]triazino[5,6-b]indol-3-yl)thio)-1-(4-nitrophenyl)ethylidene)-N-phenylhydrazine-1-carbothioamide], inhibition was half-maximal at 6.8 ± 0.1 µM (IC50).

In turn, `COc1ccc(C(CSc2nnc3c(n2)[nH]c2ccccc23)=NNC(=S)Nc2ccccc2Br)cc1` [Compound 10, 2-(2-((5H-[1,2,4]triazino[5,6-b]indol-3-yl)thio)-1-(4-methoxyphenyl)ethylidene)-N-(2-bromophenyl)hydrazine-1-carbothioamide] displayed an IC50 of 35.8 ± 0.8 µM.

In the case of `O=[N+]([O-])c1cccc(C(CSc2nnc3c(n2)[nH]c2ccccc23)=NNC(=S)Nc2ccccc2Br)c1` [Compound 11, 2-(2-((5H-[1,2,4]triazino[5,6-b]indol-3-yl)thio)-1-(3-nitrophenyl)ethylidene)-N-(2-bromophenyl)hydrazine-1-carbothioamide], the IC50 amounted to 26.8 ± 0.7 µM.

Take `Cc1ccc(NC(=S)NN=C(CSc2nnc3c(n2)[nH]c2ccccc23)c2cccc([N+](=O)[O-])c2)cc1` [Compound 12, 2-(2-((5H-[1,2,4]triazino[5,6-b]indol-3-yl)thio)-1-(3-nitrophenyl)ethylidene)-N-(p-tolyl)hydrazine-1-carbothioamide]: the IC50 was found to be 8.3 ± 0.2 µM.

Turning to `Cc1cccc(C)c1NC(=S)NN=C(CSc1nnc2c(n1)[nH]c1ccccc12)c1ccc(-c2ccccc2)cc1` [Compound 13, 2-(2-((5H-[1,2,4]triazino[5,6-b]indol-3-yl)thio)-1-([1,1′-biphenyl]-4-yl)ethylidene)-N-(2,6-dimethylphenyl)hydrazine-1-carbothioamide], half-maximal inhibition (IC50) was put at 23.3 ± 0.5 µM.

In the case of `Cc1cccc(C)c1NC(=S)NN=C(CSc1nnc2c(n1)[nH]c1ccccc12)c1cccc([N+](=O)[O-])c1` [Compound 14, 2-(2-((5H-[1,2,4]triazino[5,6-b]indol-3-yl)thio)-1-(3-nitrophenyl)ethylidene)-N-(2,6-dimethylphenyl)hydrazine-1-carbothioamide], 7.5 ± 0.2 µM corresponded to half-maximal inhibition (IC50).

`COc1ccc(C(CSc2nnc3c(n2)[nH]c2ccccc23)=NNC(=S)Nc2c(C)cccc2C)cc1` [Compound 15, 2-(2-((5H-[1,2,4]triazino[5,6-b]indol-3-yl)thio)-1-(4-methoxyphenyl)ethylidene)-N-(2,6-dimethylphenyl)hydrazine-1-carbothioamide] showed an IC50 of 5.8 ± 0.2 µM.

Turning to `COc1ccc(C(CSc2nnc3c(n2)[nH]c2ccccc23)=NNC(=S)Nc2ccc(F)cc2)cc1` [Compound 16, 2-(2-((5H-[1,2,4]triazino[5,6-b]indol-3-yl)thio)-1-(4-methoxyphenyl)ethylidene)-N-(4-fluorophenyl)hydrazine-1-carbothioamide], the IC50 is 1.8 ± 0.2 µM.

As to `O=[N+]([O-])c1cccc(C(CSc2nnc3c(n2)[nH]c2ccccc23)=NNC(=S)Nc2ccccc2)c1` [Compound 17, 2-(2-((5H-[1,2,4]triazino[5,6-b]indol-3-yl)thio)-1-(3-nitrophenyl)ethylidene)-N-phenylhydrazine-1-carbothioamide], half-maximal inhibition (IC50) required 8.8 ± 0.2 µM.

On to `COc1ccc(C(CSc2nnc3c(n2)[nH]c2ccccc23)=NNC(=S)Nc2ccc(Cl)c(Cl)c2)cc1` [Compound 18, 2-(2-((5H-[1,2,4]triazino[5,6-b]indol-3-yl)thio)-1-(4-methoxyphenyl)ethylidene)-N-(3,4-dichlorophenyl)hydrazine-1-carbothioamide], for which inhibition was half-maximal at 2.3 ± 0.05 µM (IC50).

For `S=C(NN=C(CSc1nnc2c(n1)[nH]c1ccccc12)c1ccc(-c2ccccc2)cc1)Nc1ccc(Cl)c(Cl)c1` [Compound 19, 2-(2-((5H-[1,2,4]triazino[5,6-b]indol-3-yl)thio)-1-([1,1′-biphenyl]-4-yl)ethylidene)-N-(3,4-dichlorophenyl)hydrazine-1-carbothioamide], half-maximal inhibition (IC50) was put at 2.3 ± 0.05 µM.

For the compound `Cc1ccc(C(CSc2nnc3c(n2)[nH]c2ccccc23)=NNC(=S)Nc2c(C)cccc2C)cc1` [Compound 20, 2-(2-((5H-[1,2,4]triazino[5,6-b]indol-3-yl)thio)-1-(p-tolyl)ethylidene)-N-(2,6-dimethylphenyl)hydrazine-1-carbothioamide], the IC50 came to 7.5 ± 0.2 µM.

For the compound `Cc1ccc(C(CSc2nnc3c(n2)[nH]c2ccccc23)=NNC(=S)Nc2ccc(Cl)c(Cl)c2)cc1` [Compound 21, 2-(2-((5H-[1,2,4]triazino[5,6-b]indol-3-yl)thio)-1-(p-tolyl)ethylidene)-N-(3,4-dichlorophenyl)hydrazine-1-carbothioamide], the IC50 is 4.8 ± 0.2 µM.

`COc1ccc(C(CSc2nnc3c(n2)[nH]c2ccccc23)=NNC(=S)Nc2cccc(C)c2C)cc1` [Compound 22, 2-(2-((5H-[1,2,4]triazino[5,6-b]indol-3-yl)thio)-1-(4-methoxyphenyl)ethylidene)-N-(2,3-dimethylphenyl)hydrazine-1-carbothioamide] registered an IC50 of 5.9 ± 0.1 µM.

Take `O=[N+]([O-])c1cccc(C(CSc2nnc3c(n2)[nH]c2ccccc23)=NNC(=S)Nc2cccc(Cl)c2Cl)c1` [Compound 23, 2-(2-((5H-[1,2,4]triazino[5,6-b]indol-3-yl)thio)-1-(3-nitrophenyl)ethylidene)-N-(2,3-dichlorophenyl)hydrazine-1-carbothioamide]: the midpoint of inhibition, the IC50, lay at 1.3 ± 0.01 µM.

Turning to `S=C(NN=C(CSc1nnc2c(n1)[nH]c1ccccc12)c1ccc(-c2ccccc2)cc1)Nc1ccccc1` [Compound 24, 2-(2-((5H-[1,2,4]triazino[5,6-b]indol-3-yl)thio)-1-([1,1′-biphenyl]-4-yl)ethylidene)-N-phenylhydrazine-1-carbothioamide], the IC50 is 15.3 ± 0.3 µM.

For the compound `COc1ccc(C(CSc2nnc3c(n2)[nH]c2ccccc23)=NNC(=S)Nc2ccccc2)cc1` [Compound 25, 2-(2-((5H-[1,2,4]triazino[5,6-b]indol-3-yl)thio)-1-(4-methoxyphenyl)ethylidene)-N-phenylhydrazine-1-carbothioamide], the IC50 was determined as 9.3 ± 0.3 µM.

For the origin of these results see publication PMC6864627, “Synthesis of Novel Triazinoindole-Based Thiourea Hybrid: A Study on α-Glucosidase Inhibitors and Their Molecular Docking” (Molecules, 2019).
